Paper PMC4309955 (Scientific Reports, 2015)

Key:
[1] = target: T1, human AT1R (angiotensin II type 1 receptor) (Homo sapiens, UniProt P30556); assay: inhibition of AngII-induced G protein activation, cell impedance; format: cell-based
T1 sequence (P30556 1-359): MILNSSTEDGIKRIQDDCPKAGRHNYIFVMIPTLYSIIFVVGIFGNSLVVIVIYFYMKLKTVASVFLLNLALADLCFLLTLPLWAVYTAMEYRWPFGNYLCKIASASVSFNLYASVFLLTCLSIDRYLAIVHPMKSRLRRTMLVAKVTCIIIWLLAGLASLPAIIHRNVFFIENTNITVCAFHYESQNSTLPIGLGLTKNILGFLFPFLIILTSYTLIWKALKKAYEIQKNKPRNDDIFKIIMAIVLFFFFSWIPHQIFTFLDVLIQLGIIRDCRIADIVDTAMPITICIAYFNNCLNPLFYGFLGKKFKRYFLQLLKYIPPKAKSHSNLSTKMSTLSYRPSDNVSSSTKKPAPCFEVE

[2] = target: T1, human AT1R (angiotensin II type 1 receptor); assay: inhibition of AngII-induced beta-arrestin activation, cell impedance; format: cell-based

IC50 [1] [nM] | IC50 [2] [nM] | Structure (SMILES)
1.6 | 1.6 | CCOc1nc2cccc(C(=O)O)c2n1Cc1ccc(-c2ccccc2-c2noc(=O)[nH]2)cc1 [Azilsartan]
2 | 0.7 | CCOc1nc2cccc(C(=O)O)c2n1Cc1ccc(-c2ccccc2-c2nnn[nH]2)cc1 [Candesartan]
4.7 | 7.5 | CCCCc1ncc(/C=C(\Cc2cccs2)C(=O)O)n1Cc1ccc(C(=O)O)cc1 [Eprosartan]
14.5 | 20.4 | CCCc1nc(C(C)(C)O)c(C(=O)O)n1Cc1ccc(-c2ccccc2-c2nnn[nH]2)cc1 [Olmesartan]
